Experimental data as given in US12258561B2, “Compositions and methods to promote bone formation and their uses including for the treatment of cancer” (THE RESEARCH FOUNDATION FOR THE STATE UNIVERSITY OF NEW YORK, priority 2014, dated 2025).

Legend:
monocyte cultures = test: Assay of cell number (MTT) in monocyte cultures; assay type: cell-based, human; settings: naloxone added to monocyte cultures
Excerpt: Methods: Human Bone Marrow was Collected from Consenting Adult Patients undergoing either an elective primary proximal femoral total hip arthroplasty or elective primary distal femoral total knee arthroplasty (n=6, mean age 65) as a part of an IRB approved study. Human MSC were derived from the adherent fraction of cells derived from each whole bone marrow aspirate collected, while the monocyte population was collected from the non-adherent fraction of the bone marrow. The monocyte fraction was enriched through sub-culture with 100-ng/mL recombinant human macrophage colony-stimulating factor (MCSF; Wyeth). In parallel experiments described below, the femurs from 3-week (n=10) and 16-week (n=20) old male mice were collected and then the bone marrow was flushed from the femur according to the following: A 21-gauge needle was inserted into the femoral intramedular canal after the removal of the proximal and distal ends of the femur. […]
Assay of Cell Number: Following the addition of 1-mM naloxone or 1-mM naltrexone, viable cell number was determined with the MTT assay. […] MTT was measured at 570-nm and the effects of therapy on cell proliferation were determined by normalizing treated wells relative to mean values from non-treated wells: Fold change in cell number=100*[treated cells optical density/mean control optical density].

[1] = test system: unicortical defect in mouse tibia; test: Unicortical defect model, direct injection, microCT; assay type: in vivo, C57BL/6 mice
Protocol: Unicortical Defect Model: Male 3-week old C57BL/6 mice (n=5 per treatment group) were injected with met5, naloxone or naltrexone following the creation of a unicortical defect. Briefly, a small incision (approximately 3-mm) was made just below the knee joint, located on the medial side of the tibia just below the tibial tuberosity on the tibial crest. In young animals the physeal plate is clearly visible and the drill bit was placed approximately 1-mm below this point. The drill-bit produces a unicortical defect with dimensions 300-μm diameter×1-mm depth. A Hamilton Neuros RN 10-μL syringe with a 33-gauge blunt tip needle was used to inject 2-μL of met5 (28.7-μg), naloxone (400-μg) or naltrexone (378-μg) resuspended in saline directly into the unicortical defect at a rate no faster than approximately 0.1-μL per second. The left-limb tibias served as contra-lateral surgical controls, in which animals received a unicortical defect and 2-μL of saline was injected. Mice were euthanized 5-days after surgery, hind limbs were collected and tibias were fixed for immunofluorescence, TRAP staining and OTC associated bone growth.
(§1) MicroCT Analysis of Unicortical Defects: High-resolution images of the tibia were acquired with μCT imaging system (μT40; Scanco Medical). Tibias were scanned at 45-keV with an isotropic voxel size of 12-μm. An analysis region was selected from axial sections to include the entire unicortical defect bounded by the endosteal cortical wall. The volume corrected bone volume (bone volume/total volume; By/Tv), trabecular number (TbN) and trabecular thickness (TbTh) were calculated using the Scanco software.

[2] = test system: unicortical defect in mouse tibia; test: Opioid antagonist containing collagen implant in unicortical defect model, microCT; assay type: in vivo, C57BL/6 mice; settings: 7 days after surgery
Excerpt: Implantation of Opioid Antagonist Containing Collagen Implant into a Unicortical Defect Model: Male 5-week old C57BL/6 mice (n=5 per treatment group for a total of 25 total animals) were used in this study. […] Unicortical defects were surgically administered through a small incision (approximately 3-mm) made just below the knee joint, located on the medial side of the tibia just below the tibial tuberosity on the tibial crest. In 5-weeks old male mice, the physeal plate is clearly visible and the drill bit was placed approximately 1-mm below this point. The drill-bit produces a unicortical defect with dimensions 300-μm diameter×1-mm depth. […] In parallel, a separate group of animals served as non-surgical controls. Mice were euthanized 7-days after surgery, hind limbs were collected and tibias were prepared for micro-CT (μCT) analysis.
as §1

[3] = test system: posterolateral lumbar spine; test: Rat posterolateral spinal fusion of L5-L6 vertebrae, microCT; assay type: in vivo, Sprague-Dawley rats; settings: 2-months
Excerpt: Rat Posterolateral Spinal Fusion of L5-L6 Vertebrae: 20 male, […] skeletally mature Sprague-Dawley rats underwent bilateral lumbar posterolateral spinal fusion at the L5-L6 vertebrae. […] Under sterile conditions a 2-cm long posterior midline incision centered at L5-L6 vertebrae was made. A muscle-splitting approach was used, lateral to the facet joints, to expose the transverse processes of a particular vertebra. A high-speed 1-mm burr was used to decorticate the transverse processes of the L5-L6 vertebrae. Implants were prepared and implanted between the transverse processes bilaterally in the paraspinal muscle bed. […] Animals were euthanized 2-months (n=5 rats per time point per treatment group for a total of n=20 rats) spines were collected and prepared for micro-CT (μCT) analysis.

[4] = collagen implant, 25-ng BMP2, 1-mM naltrexone or 1-mM naloxone

C=CCN1CC[C@]23c4c5ccc(O)c4O[C@H]2C(=O)CC[C@@]3(O)[C@H]1C5 [naloxone]
proliferation (cell number) in monocyte cultures (monocyte cultures): decreased proliferation
increase in trabecular number (TbN) ([1]; 1-mM injected into defect): 1.2 fold
increase in bone mass (Bv/Tv) ([1]; 1-mM injected into defect, relative to control PBS or met5 treated defects): 1.53 fold
bone healing ([1]; naloxone 1-mM or met5 50-μM): increased bone healing
increase in trabecular thickness relative to all other treatment groups ([2]; 1-mM naloxone with collagen implant): approximately 37%
Bv/Tv relative to non-surgical controls ([2]; collagen implant): increased relative to non-surgical controls
trabecular thickness (TbTh) relative to the control non-surgical group ([2]; collagen implant): increased within the defect significantly
increase in Bv/Tv relative to BMP2 treatment group ([2]; collagen implant, 1-mM): 18.2%
increase in Bv/Tv relative to the PBS treated group [2, 4]: 56.5%
increase in Bv/Tv relative to the surgical control group [2, 4]: 83.8%
bone formation in the lumbar spine versus collagen implants alone ([3]; collagen sponge implant, 25-ng BMP2 or 1-mM naloxone): increased bone formation over the collagen implants alone
Bv/Tv relative to spines implanted with collagen or the control sham surgery group ([3]; naloxone infused collagen implant, 1-mM): substantial increase in By/Tv
